{"source": "patent US9006221B2", "about": "“Method of modulating ship activity” (H. Lee Moffitt Cancer Center and Reserach Institute, Inc., priority 2008, dated 2015)", "key": {"[1]": {"target": "T1, SHIP2 (Homo sapiens, UniProt O15357)", "T1 sequence (O15357 1-1258)": "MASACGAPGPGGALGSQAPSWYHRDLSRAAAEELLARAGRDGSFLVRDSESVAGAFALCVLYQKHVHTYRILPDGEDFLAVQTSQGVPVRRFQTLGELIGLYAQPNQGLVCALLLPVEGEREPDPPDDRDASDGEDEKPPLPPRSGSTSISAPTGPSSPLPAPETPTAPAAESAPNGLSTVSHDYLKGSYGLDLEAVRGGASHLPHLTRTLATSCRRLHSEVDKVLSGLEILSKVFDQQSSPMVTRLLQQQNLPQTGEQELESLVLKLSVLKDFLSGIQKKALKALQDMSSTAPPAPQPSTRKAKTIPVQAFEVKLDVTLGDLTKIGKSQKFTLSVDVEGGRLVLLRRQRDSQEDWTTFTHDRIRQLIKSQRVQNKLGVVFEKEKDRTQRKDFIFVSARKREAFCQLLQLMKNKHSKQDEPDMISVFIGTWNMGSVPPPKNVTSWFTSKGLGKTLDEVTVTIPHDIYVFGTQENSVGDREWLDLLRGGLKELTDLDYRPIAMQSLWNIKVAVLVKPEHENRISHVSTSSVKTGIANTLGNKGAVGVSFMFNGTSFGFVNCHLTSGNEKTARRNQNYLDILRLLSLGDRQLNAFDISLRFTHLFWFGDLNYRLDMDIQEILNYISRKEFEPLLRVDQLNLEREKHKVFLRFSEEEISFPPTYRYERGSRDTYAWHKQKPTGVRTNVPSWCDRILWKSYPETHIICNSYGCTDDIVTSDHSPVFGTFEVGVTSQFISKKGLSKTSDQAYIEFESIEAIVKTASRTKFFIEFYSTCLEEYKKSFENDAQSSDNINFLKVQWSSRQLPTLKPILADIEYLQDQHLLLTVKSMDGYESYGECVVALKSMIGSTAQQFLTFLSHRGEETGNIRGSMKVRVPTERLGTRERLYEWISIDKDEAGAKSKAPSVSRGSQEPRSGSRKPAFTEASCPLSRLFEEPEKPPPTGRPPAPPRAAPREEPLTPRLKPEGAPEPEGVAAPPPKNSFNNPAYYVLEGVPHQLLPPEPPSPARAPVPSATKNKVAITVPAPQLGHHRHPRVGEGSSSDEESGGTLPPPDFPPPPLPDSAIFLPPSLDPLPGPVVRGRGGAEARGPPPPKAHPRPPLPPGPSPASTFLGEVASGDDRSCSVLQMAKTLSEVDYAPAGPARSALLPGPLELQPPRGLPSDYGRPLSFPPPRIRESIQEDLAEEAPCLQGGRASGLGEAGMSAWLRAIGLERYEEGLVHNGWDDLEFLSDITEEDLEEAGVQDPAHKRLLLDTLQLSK", "test": "Malachite Green phosphate release assay, SHIP2", "type": "biochemical", "details": "at 1 mM"}, "[2]": {"test_system": "KG1 cells", "test": "Apoptosis of KG1 cells (Western blot, Annexin V/PI FACS)", "type": "cell-based, human", "procedure": "(A) SHIP1 expression in KG1 and MG63 cells was determined by Western blotting (top). Membranes were reprobed with antibodies against b-actin to confirm equal loading (lower panel). One representative blot of 2 individual experiments is shown. (B) KG1 and MG63 cells were plated in duplicate in 96 well plates, and treated for 36 hours with increasing concentrations of the 3α-aminocholestane. Cell viability was assessed by MTT assay. Results represent the mean of three individual experiments. (C) KG1 cells were treated with increasing concentrations of 3α-aminocholestane for 36 hours and hallmarks of apoptosis were identified in cell lysates by Western Blot analysis. Membranes were probed with antibodies against PARP and cleaved PARP (cPARP, upper panel) and cleaved Caspase 3 (cCaspase 3, middle panel). Equal protein loading was confirmed by reprobing the blots with anti-b-actin antibodies (lower panel). A representative example of 2 independent experiments is shown. (D) KG1 cells were treated with increasing concentrations of 3α-aminocholestane, and the percentage of AnnexinV and PI positive cells was determined by FACS analysis. A representative example of 2 individual experiments is shown.\nIt was a concern that SHIP1 inhibitors might potentially enhance the survival and growth of blood cell cancers. Conversely, as discussed above, SHIP1 inhibition could also […] Akt activation and therefore might also antagonize the survival of malignant blood cells. The two possibilities were tested by treating the AML cell line (KG-1) that expresses SHIP1 (FIG. 17a) with 3α-aminocholestane. […]\nPreparation of cell lysates and Western blotting: Cells were counted, centrifuged and resuspended in Laemmli sample buffer. […]\nAnnexin V staining Annexin V/Propidium Iodide (PI) staining was performed using the Annexin V-FITC apoptosis detection kit from BD Pharmingen (Sharon, Mass.) per the manufacturer's instructions. […] Fluorescence was determined by flow cytometry (LSR II, Becton Dickinson Medical Systems, Sharon, Mass.)."}, "[3]": {"test_system": "human multiple myeloma cell lines OPM and RPMI", "test": "Apoptosis (annexin positive cells) in multiple myeloma cell lines", "type": "cell-based", "details": "increasing concentrations", "source_text": "(A) SHIP1 expression in human multiple myeloma (MM) cell lines as presented in the western blot analysis. SHIP is expressed in the human multiple myeloma cell lines U266, RPMI8226 and OPM2. The expression in the MM cell lines is shown relative to that observed in MG63 and HS-5 cell lines. MG63 is an osteosarcoma cell line, and HS-5 is a human bone marrow stroma cell line. […] Actin is provided as a control. (B) Results of MTT dye assays of MM cell lines. […] RUO is “relative units optical”. (C) Apoptosis in OPM and RPMI cell lines at increasing concentrations of 3α-aminocholestane."}}, "data": [{"compound": "CC(C)CCC[C@@H](C)[C@H]1CC[C@H]2[C@@H]3CC[C@H]4C[C@H](N)CC[C@]4(C)[C@H]3CC[C@]12C", "note": "[NSC23922, (3R,5S,8R,9S,10S,13R,14S,17R)-10,13-dimethyl-17-[(2R)-6-methylheptan-2-yl]-2,3,4,5,6,7,8,9,11,12,14,15,16,17-tetradecahydro-1H-cyclopenta[a]phenanthren-3-amine]", "values": [{"measurement": "inhibition of SHIP2 activity", "setting": "[1]", "value": "fails to inhibit"}, {"measurement": "frequency of AnnexinV+ cells", "setting": "[2]; KG1, 36 hours, FACS", "value": "increased frequency"}, {"measurement": "cleavage of PARP and Caspase 3", "setting": "[2]; KG1, 36 hours, Western blot", "value": "increased cleavage"}, {"measurement": "activation of Akt/PKB", "setting": "[2]; KG1, Western blot", "value": "decreased activation"}, {"measurement": "apoptosis (percent annexin positive cells)", "setting": "[3]", "value": "apoptosis occurs"}]}]}
